Results as given in PMC10461232, “Structure-Based Design of Transport-Specific Multitargeted One-Carbon Metabolism Inhibitors in Cytosol and Mitochondria” (Journal of Medicinal Chemistry, 2023).

Key:
KB tumor cells = test: Metabolite rescue of growth inhibition in KB tumor cells; format: cell-based, human; conditions: serine- and glycine-free medium, adenosine 60 μM
Excerpt: To confirm the targeted pathways for the pyrrolo[3,2-d]pyrimidine antifolates in tumor cells, we treated KB human tumor cells cultured in serine- and glycine-free media with the pyrrolo[3,2-d]pyrimidine compounds (4–9, 11–16) to test for the rescue by added nucleosides and glycine. Results were compared to those for AGF94, a pyrrolo[2,3-d]pyrimidine antifolate that inhibits GARFTase without effects on SHMT2,[69] and to compounds 1, 2, and 3, documented inhibitors of mitochondrial C1 metabolism and de novo purine biosynthesis in human tumor cells.[36] The results are shown in Figures 15 and S11 (Supplemental Information). […]
For some experiments with KB tumor cells, cells were cultured in serine-, glycine-, and folate-free RPMI 1640 (Fisher Scientific), supplemented with 10% dialyzed fetal bovine serum, antibiotics, 25 nM leucovorin, and 2 mM L-glutamine. In vitro growth inhibition was measured (above), without additions, or in the presence of folic acid (200 nM), or thymidine (10 μM), adenosine (60 μM), 5-aminoimidazole-4-carboxamide (AICA) (320 μM), and/or glycine (130 μM) to establish the inhibitory effects of the antifolate drugs on de novo thymidylate synthase versus de novo purine nucleotide biosynthesis (GARFTase and AICARFTase) or mitochondrial C1 metabolism at SHMT2.[36],[63],[64],[68],[69] […]

SHMT1 = biological target: T1, SHMT1 (Homo sapiens, UniProt P34896); test: SHMT1 inhibition assay coupled with MTHFD2, Ki; format: biochemical; conditions: purified His-SHMT1, 50 μM THF, 25 °C; mean (SD), at least 3 replicates
T1 construct: full-length SHMT1 with an N-terminal His6-tag; made in house; host or cells: E. coli Rosetta (DE3)pLysS
T1 sequence (P34896 1-483): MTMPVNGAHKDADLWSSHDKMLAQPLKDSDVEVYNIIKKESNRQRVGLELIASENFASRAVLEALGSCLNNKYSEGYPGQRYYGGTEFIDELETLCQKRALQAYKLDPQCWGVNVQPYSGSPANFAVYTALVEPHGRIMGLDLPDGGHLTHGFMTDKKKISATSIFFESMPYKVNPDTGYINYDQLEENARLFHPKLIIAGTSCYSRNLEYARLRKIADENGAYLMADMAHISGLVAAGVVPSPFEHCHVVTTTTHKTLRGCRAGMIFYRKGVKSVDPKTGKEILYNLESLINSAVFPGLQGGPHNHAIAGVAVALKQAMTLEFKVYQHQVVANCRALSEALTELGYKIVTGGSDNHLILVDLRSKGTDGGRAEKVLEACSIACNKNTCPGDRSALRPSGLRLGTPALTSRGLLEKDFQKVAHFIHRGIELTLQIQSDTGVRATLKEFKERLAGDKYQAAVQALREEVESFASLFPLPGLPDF
Procedure: Kinetic measurements were recorded in triplicate using a flat, black-bottom, black-walled 96-well plate (Greiner Bio-One, 655900) and a BioTek Synergy Neo2 Plate Reader. […] To assay SHMT1 or SHMT2 (SHMT1/2) enzymes, a coupled reaction with His-MTHFD2 in 200-fold molar excess was used where the production of NADH was monitored by fluorescence with excitation at 360 nm and emission at 470 nm at 25 °C. The reactions contained 5 nM His-SHMT1/2, 50 μM THF, 20 mM serine, 10 μM His-MTHFD2, 2.5 mM NAD^+, and a range of inhibitor concentrations (final concentrations). The reactions were performed in buffer containing 20 mM sodium phosphate, pH 7.5, 100 mM KCl, 0.2 mM EDTA, and 5 mM β-Me. A BioTek Synergy Neo2 Plate Reader was used to record kinetic measurements in triplicate in a UV-transparent 96-well plate (Costar 3635) for GARFTase and AICARFTase assays and a black-well, black-bottom 96-well plate (Corning 3603). To calculate IC50 values for each inhibitor, initial velocities were graphed as a function of inhibitor concentrations and fit with a three-parameter nonlinear regression (GraphPad Prism 8.0). The equation [Ki = IC50/([S]/KM + 1)] was used to convert IC50’s to Ki values.

SHMT2 = biological target: T2, SHMT2 (Homo sapiens, UniProt P34897); test: SHMT2 inhibition assay coupled with MTHFD2, Ki; format: biochemical; conditions: purified His-SHMT2, 50 μM THF, 25 °C; mean (SD), at least 3 replicates
T2 construct: made in house; host or cells: E. coli Rosetta (DE3)pLysS
T2 sequence (P34897 30-504): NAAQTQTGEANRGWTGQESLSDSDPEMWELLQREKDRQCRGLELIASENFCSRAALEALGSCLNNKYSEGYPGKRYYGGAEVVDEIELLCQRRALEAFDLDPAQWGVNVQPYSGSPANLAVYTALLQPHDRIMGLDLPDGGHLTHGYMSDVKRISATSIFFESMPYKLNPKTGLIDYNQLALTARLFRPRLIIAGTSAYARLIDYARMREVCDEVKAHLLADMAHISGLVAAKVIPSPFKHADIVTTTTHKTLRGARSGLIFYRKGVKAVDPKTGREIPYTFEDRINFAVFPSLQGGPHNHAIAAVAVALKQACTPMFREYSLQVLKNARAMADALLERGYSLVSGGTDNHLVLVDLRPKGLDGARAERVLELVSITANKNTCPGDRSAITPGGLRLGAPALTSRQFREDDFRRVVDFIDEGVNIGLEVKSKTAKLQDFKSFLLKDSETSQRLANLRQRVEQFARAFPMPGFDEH
Procedure: (§1) MTHFD2 activities were assayed by a reaction with methylene THF and NAD^+. NADH production was measured by fluorescence (excitation 340 nm, emission 480 nm). Reaction conditions included 100 nM MTHFD2, 5 μM methylene THF, and concentrations of small-molecule inhibitor ranging from 0.02 nM to 2000 nM; NAD^+ (2.5 mM) was added to initiate the reaction. The reaction buffer consisted of 50 mM Tris-HCl, pH 7.5, 250 mM NaCl, 5 mM magnesium chloride, 5% glycerol, and 0.5 mM TCEP. […] To assay SHMT1 or SHMT2 (SHMT1/2) enzymes, a coupled reaction with His-MTHFD2 in 200-fold molar excess was used where the production of NADH was monitored by fluorescence with excitation at 360 nm and emission at 470 nm at 25 °C. The reactions contained 5 nM His-SHMT1/2, 50 μM THF, 20 mM serine, 10 μM His-MTHFD2, 2.5 mM NAD^+, and a range of inhibitor concentrations (final concentrations). The reactions were performed in buffer containing 20 mM sodium phosphate, pH 7.5, 100 mM KCl, 0.2 mM EDTA, and 5 mM β-Me. […] To calculate IC50 values for each inhibitor, initial velocities were graphed as a function of inhibitor concentrations and fit with a three-parameter nonlinear regression (GraphPad Prism 8.0). The equation [Ki = IC50/([S]/KM + 1)] was used to convert IC50’s to Ki values.

human GARFTase = biological target: T3, human GARFTase (Homo sapiens, UniProt P22102); test: GARFTase inhibition assay, Ki (10-formyl THF to THF, absorbance 298 nm); format: biochemical; conditions: purified His-GARFTase, 40 μM 10-formyl THF, 37 °C; mean (SD), at least 3 replicates
T3 construct: formyltransferase domain of human GARFTase (residues 808–1010); made in house; host or cells: E. coli Rosetta (DE3)pLysS
T3 sequence (P22102 808-1010): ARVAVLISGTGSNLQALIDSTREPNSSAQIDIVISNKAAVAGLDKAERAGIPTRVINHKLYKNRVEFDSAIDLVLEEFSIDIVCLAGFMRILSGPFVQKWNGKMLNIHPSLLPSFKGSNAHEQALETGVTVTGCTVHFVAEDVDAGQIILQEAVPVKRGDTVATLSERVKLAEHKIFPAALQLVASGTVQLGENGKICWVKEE

human ATIC = biological target: T4, human ATIC (Homo sapiens, UniProt P31939); test: AICARFTase (ATIC) inhibition assay, Ki; format: biochemical; conditions: purified His-ATIC, AICARFTase activity, 50 μM 10-formyl THF, 25 °C; mean (SD), at least 3 replicates
T4 construct: N-terminal His6-tagged full-length human ATIC; made in house; host or cells: E. coli Rosetta (DE3)pLysS
Procedure: The cells were grown at 37 °C in 1 L cultures of LB media containing […] and […] until OD600 reached 0.6. Protein expression was induced by the addition of isopropyl β-D1-thiogalactopyranoside (IPTG, 500 μM).
His-ATIC was purified by Ni-NTA chromatography (Gold Biotechnology).[36] […] His-ATIC was eluted in 1 column volume fractions, 5 times with buffer containing 300 mM imidazole, 25 mM Tris-HCl, pH 7.5, 300 mM NaCl, and 5 mM β-Me. Size exclusion chromatography on a Superdex 200 16/60 (GE Healthcare) column was used for final purification using 20 mM Tris-HCl, pH 7.5, 150 mM NaCl, 50 mM KCl, 5 mM EDTA, and 5 mM dithiothreitol.
as §1

KB (RFC/PCFT/FRα) cells = test: Growth inhibition, KB nasopharyngeal carcinoma cells; format: cell-based, human; conditions: Homo sapiens, KB, folate-free RPMI 1640, 2 nM leucovorin, mean (SE)
Procedure: The CHO cells were cultured in α-minimal essential medium (MEM) supplemented with 10% bovine calf serum (Fisher Scientific), penicillin (1000 U/mL)/streptomycin (1000 μg/mL), and 2 mM L-glutamine at 37 °C with 5% CO2. All of the R2 transfected cells (PC43-10, RT16, R2/PCFT4) were cultured in complete α-MEM media plus 1 mg/mL G418. Prior to the cytotoxicity assays (see below), RT16 and D4 cells were cultured for 3 days in complete folate-free RPMI 1640 (without added folate), and R2/PCFT4 and R2 cells were cultured in complete folate-free RPMI 1640 supplemented with dialyzed fetal bovine serum (Fisher Scientific) and 25 nM leucovorin plus 1 mg/mL G418. KB cells were routinely cultured in folate-free RPMI 1640 medium, supplemented with 10% fetal bovine serum (Fisher Scientific), penicillin-streptomycin solution, and 2 mM L-glutamine at 37 °C with 5% CO2.
For growth inhibition studies, cells (CHO, KB) were plated in 96-well dishes (∼2500–5000 cells/well, total volume of 200 μL medium) over a range of antifolate concentrations.[69],[77] The medium was folate-free RPMI 1640 with 10% dialyzed serum and antibiotics supplemented with 25 nM leucovorin for experiments with R2, PC43-10, and R2/PCFT4 cells. For experiments with RT16, D4, and KB cells, cells were cultured in folate-free RPMI medium with 10% dialyzed fetal bovine serum and antibiotics; the medium was supplemented with 2 nM leucovorin. […] Incubations were routinely for up to 96 h. Viable cells (reflecting cell viability) were assayed with Cell Titer Blue reagent (Promega, Madison, WI), with fluorescence measured (590 nm emission, 560 nm excitation) with a fluorescence plate reader.

PC43-10 (RFC) CHO cells = conditions: classic antifolates, CHO cells expressing human RFC; previously published; cited from earlier work
RT16 (FRα) CHO cells = conditions: classic antifolates, CHO cells expressing human FRα; previously published; cited from earlier work
D4 (FRβ) CHO cells = conditions: classic antifolates, CHO cells expressing human FRβ; previously published; cited from earlier work

T4 sequence (P31939 whole entry): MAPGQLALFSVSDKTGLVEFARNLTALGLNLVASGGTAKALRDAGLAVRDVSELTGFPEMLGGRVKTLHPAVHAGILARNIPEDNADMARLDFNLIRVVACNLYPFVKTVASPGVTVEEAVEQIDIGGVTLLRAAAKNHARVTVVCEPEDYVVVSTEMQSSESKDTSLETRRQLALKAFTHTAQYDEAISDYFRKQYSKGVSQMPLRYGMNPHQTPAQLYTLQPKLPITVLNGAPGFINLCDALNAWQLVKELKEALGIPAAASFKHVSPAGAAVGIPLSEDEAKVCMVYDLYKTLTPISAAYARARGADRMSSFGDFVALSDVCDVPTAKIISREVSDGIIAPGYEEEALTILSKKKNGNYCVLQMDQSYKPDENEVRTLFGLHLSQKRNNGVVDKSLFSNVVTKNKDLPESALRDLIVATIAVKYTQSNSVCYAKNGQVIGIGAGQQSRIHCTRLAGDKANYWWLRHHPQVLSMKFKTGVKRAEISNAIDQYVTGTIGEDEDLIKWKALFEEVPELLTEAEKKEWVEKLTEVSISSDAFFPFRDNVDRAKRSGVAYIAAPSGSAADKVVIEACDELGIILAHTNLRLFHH

Nc1nc2[nH]c(CCCc3ccc(C(=O)N[C@@H](CCC(=O)O)C(=O)O)s3)cc2c(=O)[nH]1 [AGF94, (S)-2-({5-[3-(2-amino-4-oxo-4,7-dihydro-3H-pyrrolo[2,3-d]pyrimidin-6-yl)-propyl]-thiophene-2-carbonyl}-amino)-pentanedioic acid]
effect of adenosine alone on growth inhibition (KB tumor cells): completely reversed

CN(Cc1cnc2nc(N)nc(N)c2n1)c1ccc(C(=O)N[C@@H](CCC(=O)O)C(=O)O)cc1 [MTX, methotrexate]
Ki (SHMT1): > 200 µM
Ki (SHMT2): 98 ± 17 µM

C#CCC(Cc1cnc2nc(N)nc(N)c2n1)c1ccc(C(=O)N[C@@H](CCC(=O)O)C(=O)O)cc1 (stereo partly drawn) [PDX, N-(4-{1-[(2,4-diaminopteridin-6-yl)methyl]but-3-yn-1-yl}benzoyl)-L-glutamic acid]
Ki (human GARFTase): > 150 µM
Ki (human ATIC): > 200 µM
Ki (SHMT1): > 200 µM
Ki (SHMT2): > 200 µM
IC50 (KB (RFC/PCFT/FRα) cells): 0.00047 µM
IC50 (PC43-10 (RFC) CHO cells): 0.00069 µM
IC50 (RT16 (FRα) CHO cells): 0.043 µM
IC50 (D4 (FRβ) CHO cells): 0.0025 µM

Nc1nc2[nH]cc(CCc3ccc(C(=O)N[C@@H](CCC(=O)O)C(=O)O)cc3)c2c(=O)[nH]1 [PMX, N-{4-[2-(2-amino-3,4-dihydro-4-oxo-7H-pyrrolo[2,3-d]pyrimidin-5-yl)ethyl]benzoyl}-L-glutamic acid]
Ki (SHMT1): > 200 µM
Ki (SHMT2): > 200 µM
